According to publication PMC5789083, “Mechanisms driving the antibacterial and antibiofilm properties of Hp1404 and its analogue peptides against multidrug-resistant Pseudomonas aeruginosa” (Scientific Reports, 2018):
Where two headings read alike, the source gives them in different places. Where no end group is shown, it is not given here.

Columns and labels:
[1] = test system: Pseudomonas aeruginosa and MRPA strains; test: microbe, parasite or virus in culture; assay type: cell-based; conditions: broth micro-dilution, 37 °C, 18–24 h
How it was run: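 Peptide dilutions prepared in 10 mM sodium phosphate buffer were combined in equal volume with overnight cultures diluted to 2 × 10^5 CFU/mL (reference strain ATCC 27853 and hospital MDR isolates). After 18–24 h at 37 °C, absorbance at 600 nm defined MIC; triplicate tests.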

[2] = test system: HaCaT cells; test: Cytotoxicity, MTT assay; assay type: cell-based, human; conditions: 50 µM, 24 h
Protocol: We used the MTT assay to evaluate the toxicity of the peptides toward human skin epithelial cells (HaCaT) as previously described. Briefly, HaCaT cells were seeded at a density of 2 × 10^4 cells per well in 96-well microtiter plates in Dulbecco’s modified Eagle’s medium (DMEM) containing 10% foetal bovine serum (FBS) at 37 °C under 5% CO2 atmosphere. The next day, peptides were added to each well at various final concentrations (higher concentration of 200 µM). After 24 h incubation, culture supernatants were removed. 0.5 mg/mL MTT was added to each well, and the plates were incubated for 4 h at 37 °C. The medium was replaced by dimethyl sulfoxide (DMSO) to dissolve the formazan crystals formed in the wells. The absorbance at 570 nm was measured using a Versa-Max microplate ELISA reader (Molecular Devices). The viability rate was calculated using the following formula: Cell viability (%) = (absorbance of treated sample)/(absorbance of control) × 100.

[3] = test system: P. aeruginosa 27853; assay type: cell-based, Pseudomonas aeruginosa
Protocol: We examined the activity of each peptide against both pseudomonas aeruginosa and multidrug-resistant strains. The minimal inhibitory concentrations (MICs) of peptides were determined using the broth micro-dilution assay as described previously. Briefly, bacterial strains were cultivated with shaking overnight at 37 °C. The next day, they were diluted to a density of 2 × 10^5 CFU/mL with growth medium. Peptides were serially diluted with 10 mM sodium phosphate buffer. 50 µL bacterial aliquots were mixed with an equal volume of peptide solution, and incubated at 37 °C for 18–24 h. Inhibition of bacterial growth was determined by measuring the absorbance at 600 nm using a Versa Max microplate reader (Molecular Devices, Sunnyvale, CA, USA). The test was performed in triplicate.
The effects of various cations on the antibacterial activities of the parental and analogue peptides against P. aeruginosa 27853 were evaluated as previously described. Bacteria was treated with peptides at a final concentration 25 µM in the presence of physiological salts such as NaCl (50 mM, 100 mM, and 150 mM), CaCl2 (1.25 mM, 2.5 mM, and 5 mM), or MgCl2 (0.5 mM, 1 mM, and 2 mM). The MIC values were determined as described above.

[4] = test system: P. aeruginosa strains (biofilm formation); assay type: cell-based, Pseudomonas aeruginosa; conditions: 24 h, 37 °C, crystal violet OD595
Protocol: To evaluate the ability of bacterial strains to form biofilms either in the absence or presence of peptides, antibiotic-susceptible P. aeruginosa (ATCC 27853), and various strains of MDR P. aeruginosa were cultured in nutrient broth (NB). […]. The biofilms were fixed with 100% methanol for 15 min, stained with 0.1% crystal violet (CV) for 1 h, and rinsed three times with distilled water (dH2O). After the addition of 95% ethanol, biofilm mass was quantified by measuring OD at 595 nm using a Versa-Max microplate ELISA reader (Molecular Devices). Results were expressed as the percentage of biofilm formed with respect to the control. […] All experiments were performed at least in triplicate.

[5] = P. aeruginosa 138 (multidrug-resistant), triplicate
[6] = P. aeruginosa 431 (multidrug-resistant), triplicate
[7] = P. aeruginosa 434 (multidrug-resistant), triplicate
[8] = P. aeruginosa 557 (multidrug-resistant), triplicate
[9] = P. aeruginosa 559 (multidrug-resistant), triplicate
[10] = P. aeruginosa 778 (multidrug-resistant), triplicate
[11] = P. aeruginosa 1034 (multidrug-resistant), triplicate
[12] = P. aeruginosa 1162 (multidrug-resistant), triplicate
[13] = P. aeruginosa 3290 (multidrug-resistant), triplicate
[14] = P. aeruginosa 3399 (multidrug-resistant), triplicate
[15] = P. aeruginosa 3543 (multidrug-resistant), triplicate
[16] = P. aeruginosa 3592 (multidrug-resistant), triplicate
[17] = P. aeruginosa 3904 (multidrug-resistant), triplicate
[18] = P. aeruginosa 4007 (multidrug-resistant), triplicate
[19] = P. aeruginosa 4319 (multidrug-resistant), triplicate
[20] = P. aeruginosa 4891 (multidrug-resistant), triplicate
[21] = P. aeruginosa 5018 (multidrug-resistant), triplicate
[22] = P. aeruginosa 671973 (multidrug-resistant), triplicate
[23] = P. aeruginosa ATCC 27853, 2 × 10^5 CFU/mL, A600, triplicate
[24] = P. aeruginosa 27853, 5 × 10^5 CFU/mL, 0.2% glucose

| Substance | MIC [1, 5] | MIC [1, 6] | MIC [1, 7] | MIC [1, 8] | MIC [1, 9] | MIC [1, 10] | MIC [1, 11] | MIC [1, 12] | MIC [1, 13] | MIC [1, 14] | MIC [1, 15] | MIC [1, 16] | MIC [1, 17] | MIC [1, 18] | MIC [1, 19] | MIC [1, 20] | MIC [1, 21] | MIC [1, 22] | MIC [1, 23] | survival rate of HaCaT cells [2] | further results |
| --- | --- | --- | --- | --- | --- | --- | --- | --- | --- | --- | --- | --- | --- | --- | --- | --- | --- | --- | --- | --- | --- |
| GILGKLWEGVKSIF-NH2 [Hp1404] | 12.5 µM | 12.5 µM | 12.5 µM | 6.25 µM | 25 µM | 12.5 µM | 6.25 µM | 12.5 µM | 12.5 µM | 6.25 µM | 6.25 µM | 6.25 µM | 6.25 µM | 25 µM | 12.5 µM | 6.25 µM | 12.5 µM | 3.13 µM | 12.5 µM | 30% | MIC ([3]; CaCl2 1.25 mM): >25 µM; MIC ([3]; CaCl2 2.5 mM): >25 µM; MIC ([3]; CaCl2 5 mM): >25 µM; MIC ([3]; MgCl2 0.5 mM): 25 µM; MIC ([3]; MgCl2 1 mM): 25 µM; MIC ([3]; MgCl2 2 mM): >25 µM; MIC ([3]; NaCl 50 mM): 25 µM; MIC ([3]; NaCl 100 mM): >25 µM; MIC ([3]; NaCl 150 mM): >25 µM; MBIC ([4]; P. aeruginosa 434): 25 µM; MBIC ([4]; P. aeruginosa 559): 50 µM; MBIC ([4]; P. aeruginosa 778): 25 µM; MBIC ([4]; P. aeruginosa 1034): 25 µM; MBIC ([4]; P. aeruginosa 1162): 25 µM; MBIC ([4]; P. aeruginosa 3399): 12.5 µM; MBIC ([4]; P. aeruginosa 3543): 6.25 µM; MBIC ([4]; P. aeruginosa 4007): 25 µM; MBIC [4, 24]: 25 µM |
| ILKKLLKKVKKI-NH2 [Hp1404-T1e] | 6.25 µM | 3.13 µM | 3.13 µM | 3.13 µM | 6.25 µM | 1.56 µM | 1.56 µM | 1.56 µM | 6.25 µM | 0.78 µM | 12.5 µM | 1.56 µM | 3.13 µM | 3.13 µM | 3.13 µM | 1.56 µM | 1.56 µM | 1.56 µM | 1.56 µM | 100% | MIC ([3]; CaCl2 1.25 mM): 6.25 µM; MIC ([3]; CaCl2 2.5 mM): 12.5 µM; MIC ([3]; CaCl2 5 mM): >25 µM; MIC ([3]; MgCl2 0.5 mM): 3.13 µM; MIC ([3]; MgCl2 1 mM): 3.13 µM; MIC ([3]; MgCl2 2 mM): 12.5 µM; MIC ([3]; NaCl 50 mM): 6.25 µM; MIC ([3]; NaCl 100 mM): 6.25 µM; MIC ([3]; NaCl 150 mM): 12.5 µM; MBIC ([4]; P. aeruginosa 434): 12.5 µM; MBIC ([4]; P. aeruginosa 559): 12.5 µM; MBIC ([4]; P. aeruginosa 778): 6.25 µM; MBIC ([4]; P. aeruginosa 1034): 6.25 µM; MBIC ([4]; P. aeruginosa 1162): 6.25 µM; MBIC ([4]; P. aeruginosa 3399): 12.5 µM; MBIC ([4]; P. aeruginosa 3543): 50 µM; MBIC ([4]; P. aeruginosa 4007): 12.5 µM; MBIC [4, 24]: 12.5 µM |
